# Numbered stars: 1 amine (or outer) side, 2 acyl side, 3 side chain; on linkers, the order of the positions; unused ones are H or OH. Bridge positions count the residues as written; N and C are the ends. Side chains are listed from the residue outwards. Peptide text beside a SMILES is read from it. * marks the point of attachment. C20 diacid = O=C(O)CCCCCCCCCCCCCCCCCCC(=O)*; γGlu = O=C(O)[C@H](CCC(=O)[*:2])N[*:1]; AEEA = NCCOCCOCC(=O)O
# Tests used:
# [1] = target: T1, human calcitonin receptor (Homo sapiens, UniProt P30988); assay: ASSAY (VII) binding to the human calcitonin receptor (SPA, 125I-Calcitonin); settings: read-out: hCTR bind IC50;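 further: cell membranes (35 ng/µL) combined with SPA beads in 40 µL of pH 7.4 Hepes buffer, 384-well format, signal counted on a TopCounter instrument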
# T1 construct: expressed in transfected cells
# T1 sequence (P30988 25-474): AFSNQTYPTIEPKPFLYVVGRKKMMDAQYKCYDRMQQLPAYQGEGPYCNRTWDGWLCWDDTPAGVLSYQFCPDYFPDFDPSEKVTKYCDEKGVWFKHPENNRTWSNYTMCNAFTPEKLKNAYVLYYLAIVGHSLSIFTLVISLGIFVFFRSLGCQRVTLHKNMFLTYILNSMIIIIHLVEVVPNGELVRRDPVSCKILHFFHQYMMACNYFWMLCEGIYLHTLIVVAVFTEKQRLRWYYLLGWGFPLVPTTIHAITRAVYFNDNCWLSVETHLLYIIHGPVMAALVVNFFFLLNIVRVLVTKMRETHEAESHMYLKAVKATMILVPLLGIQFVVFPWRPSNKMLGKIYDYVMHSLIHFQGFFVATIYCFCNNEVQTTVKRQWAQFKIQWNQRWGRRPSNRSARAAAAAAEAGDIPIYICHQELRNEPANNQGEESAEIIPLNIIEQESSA
# [2] = target: T2, rat amylin receptor (rat calcitonin receptor + rat RAMP 3) (Rattus norvegicus, UniProt P32214+Q9JJ73); assay: ASSAY (VI) binding to the rat amylin receptor; settings: for IC50: binding to rat amylin receptor, read-out: rAmylin-R bind IC50
# T2 construct: expressed in transfected cells; host or cells: BHK tk'ts 13 (transient, FuGENE 6), membranes
# T2 sequence (P32214 25-479 isoform P32214-2 limits assumed): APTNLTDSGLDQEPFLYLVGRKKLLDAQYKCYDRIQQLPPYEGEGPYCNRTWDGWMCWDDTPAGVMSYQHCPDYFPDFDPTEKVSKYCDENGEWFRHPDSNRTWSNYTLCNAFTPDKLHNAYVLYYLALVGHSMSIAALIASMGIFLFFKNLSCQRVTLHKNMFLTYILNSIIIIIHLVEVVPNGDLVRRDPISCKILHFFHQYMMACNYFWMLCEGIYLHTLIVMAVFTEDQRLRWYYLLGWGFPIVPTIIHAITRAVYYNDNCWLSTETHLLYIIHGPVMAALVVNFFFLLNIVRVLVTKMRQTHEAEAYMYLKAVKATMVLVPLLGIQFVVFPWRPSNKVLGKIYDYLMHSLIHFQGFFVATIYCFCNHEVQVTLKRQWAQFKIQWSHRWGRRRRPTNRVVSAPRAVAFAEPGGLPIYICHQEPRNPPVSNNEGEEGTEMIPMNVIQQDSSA
# T2 sequence (Q9JJ73 23-147 partner): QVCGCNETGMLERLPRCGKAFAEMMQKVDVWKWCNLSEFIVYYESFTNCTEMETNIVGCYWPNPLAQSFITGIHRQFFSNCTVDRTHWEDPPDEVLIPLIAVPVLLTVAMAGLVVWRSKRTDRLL
# Outline: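 Binding to the rat amylin receptor was determined with membrane preparations. The receptor was expressed by transiently transfecting BHK tk′ts 13 cells with rat calcitonin receptor, using FuGENE® 6 (Roche) according to the manufacturer's recommendations. Roughly 48 hours later the cells were harvested and their membranes isolated.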
# [3] = ASSAY (III) ThT fibrillation assay for physical stability; assay type: physicochemical
# Outline: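 Formulations with 1 μM ThT, pH adjusted as required, incubated at 37 °C with 960 rpm orbital shaking; fluorescence (ex 444/em 485 nm) read every 20 min. Fibrillation reported as mean ThT fluorescence ± SD of 4–8 replicates at time points; polypeptide concentration measured by reverse-phase HPLC before and after, post-centrifugation.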
# rat calcitonin receptor = target: T3, rat calcitonin receptor (Rattus norvegicus, UniProt P32214); assay: ASSAY (VIII) binding to the rat calcitonin receptor; settings: Table 7, read-out: rCTR bind IC50
# T3 construct: expressed in transfected cells; host or cells: BHK tk'ts 13 (transient, FuGENE 6), membranes
# T3 sequence (P32214 25-479 isoform P32214-2 limits assumed): T2 sequence (P32214 25-479 isoform P32214-2 limits assumed)
# Outline: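 Membranes were prepared from BHK tk′ts 13 cells transiently transfected with rat calcitonin receptor. Cells were grown in DMEM with 10% FBS and harvested approximately 48 hours after transfection.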
# [4] = Table 7, rat binding selectivity, rCTR IC50 / rAmylin-R IC50
# [5] = Table 7a (preferred compounds), rat binding selectivity, rCTR IC50 / rAmylin-R IC50
# [6] = ratio of rCTR bind IC50 to rAmylin-R bind IC50
Structure (SMILES),IC50 [1],IC50 ([2]; Table 7),"Ratio rCT/rAmylin binding [2, 4]","Ratio rCT/rAmylin binding [2, 5]","Ratio rCT/rAmylin binding [2, 6]",ThT pH 4.0 lag time (h) [3],IC50 (rat calcitonin receptor)
CC[C@H](C)[C@H](NC(=O)[C@H](C)NC(=O)CNC(=O)[C@H](Cc1ccccc1)NC(=O)[C@H](CC(N)=O)NC(=O)[C@@H]1CCCN1C(=O)[C@H](CO)NC(=O)[C@H](CO)NC(=O)[C@H](Cc1c[nH]cn1)NC(=O)[C@H](CCCNC(=N)N)NC(=O)[C@H](CC(C)C)NC(=O)[C@H](Cc1ccccc1)NC(=O)[C@H](Cc1c[nH]cn1)NC(=O)[C@H](C)NC(=O)[C@H](CC(C)C)NC(=O)[C@H](CCCNC(=N)N)NC(=O)[C@H](CCC(N)=O)NC(=O)[C@@H](NC(=O)[C@H](C)NC(=O)[C@@H]1CSSC[C@H](NC(=O)[C@@H](N)CCCCNC(=O)CC[C@H](NC(=O)CCCCCCCCCCCCCCCCCCC(=O)O)C(=O)O)C(=O)N[C@@H](CC(N)=O)C(=O)N[C@@H]([C@@H](C)O)C(=O)N[C@@H](C)C(=O)N[C@@H]([C@@H](C)O)C(=O)N1)[C@@H](C)O)C(=O)N1CCC[C@H]1C(=O)N[C@@H](CO)C(=O)N[C@@H](CO)C(=O)N[C@H](C(=O)N[C@@H](CC(N)=O)C(=O)N[C@H](C(=O)NCC(=O)N[C@@H](CO)C(=O)N[C@@H](CC(N)=O)C(=O)N[C@H](C(=O)N[C@@H](Cc1ccc(O)cc1)C(N)=O)[C@@H](C)O)C(C)C)[C@@H](C)O [Example 70] (H-K([γGlu-C20 diacid])CNTATCATQRLAHFLRHSSPNFGAIPSSTNVGSNTY-NH2; disulfide 2-7; N-terminus assumed),10.3 nM,0.355 nM,96.5,96.5,96.5,7 h,34.2 nM
CC[C@H](C)[C@H](NC(=O)[C@H](C)NC(=O)CNC(=O)[C@H](Cc1ccccc1)NC(=O)[C@H](CC(N)=O)NC(=O)[C@@H]1CCCN1C(=O)[C@H](CO)NC(=O)[C@H](CO)NC(=O)[C@H](Cc1c[nH]cn1)NC(=O)[C@H](CCCNC(=N)N)NC(=O)[C@H](CC(C)C)NC(=O)[C@H](Cc1ccccc1)NC(=O)[C@@H](NC(=O)[C@H](C)NC(=O)[C@H](CC(C)C)NC(=O)[C@H](CCCNC(=N)N)NC(=O)[C@H](CCC(N)=O)NC(=O)[C@@H](NC(=O)[C@H](C)NC(=O)[C@@H]1CSSC[C@H](NC(=O)[C@@H](N)CCCCNC(=O)COCCOCCNC(=O)CC[C@H](NC(=O)CCCCCCCCCCCCCCCCCCC(=O)O)C(=O)O)C(=O)N[C@@H](CC(N)=O)C(=O)N[C@@H]([C@@H](C)O)C(=O)N[C@@H](C)C(=O)N[C@@H]([C@@H](C)O)C(=O)N1)[C@@H](C)O)[C@@H](C)O)C(=O)N1CCC[C@H]1C(=O)N[C@@H](CO)C(=O)N[C@@H](CO)C(=O)N[C@H](C(=O)N1CCC[C@H]1C(=O)N[C@H](C(=O)NCC(=O)N[C@@H](CO)C(=O)N[C@@H](CC(N)=O)C(=O)N[C@H](C(=O)N[C@@H](Cc1ccc(O)cc1)C(N)=O)[C@@H](C)O)C(C)C)[C@@H](C)O [Example 75] (H-K([AEEA-γGlu-C20 diacid])CNTATCATQRLATFLRHSSPNFGAIPSSTPVGSNTY-NH2; disulfide 2-7 (inferred); N-terminus assumed),60.9 nM,4.03 nM,109.8,109.8,109.8,25 h,442 nM
CC[C@H](C)[C@H](NC(=O)[C@H](C)NC(=O)CNC(=O)[C@H](Cc1ccccc1)NC(=O)[C@H](CC(N)=O)NC(=O)[C@@H]1CCCN1C(=O)[C@H](CO)NC(=O)[C@H](CO)NC(=O)[C@H](Cc1c[nH]cn1)NC(=O)[C@H](CCCNC(=N)N)NC(=O)[C@H](CC(C)C)NC(=O)[C@H](Cc1ccccc1)NC(=O)[C@H](CC(N)=O)NC(=O)[C@H](C)NC(=O)[C@H](CC(C)C)NC(=O)[C@H](CCCNC(=N)N)NC(=O)[C@H](CCC(N)=O)NC(=O)[C@@H](NC(=O)[C@H](C)NC(=O)[C@@H]1CSSC[C@H](NC(=O)[C@H](CCCNC(=N)N)NC(=O)[C@@H](N)CCCCNC(=O)CC[C@H](NC(=O)CCCCCCCCCCCCCCCCCCC(=O)O)C(=O)O)C(=O)N[C@@H](CC(N)=O)C(=O)N[C@@H]([C@@H](C)O)C(=O)N[C@@H](C)C(=O)N[C@@H]([C@@H](C)O)C(=O)N1)[C@@H](C)O)C(=O)N1CCC[C@H]1C(=O)N[C@@H](CO)C(=O)N[C@@H](CO)C(=O)N[C@H](C(=O)N[C@@H](CC(N)=O)C(=O)N[C@H](C(=O)NCC(=O)N[C@@H](CO)C(=O)N[C@@H](Cc1c[nH]cn1)C(=O)N[C@H](C(=O)N[C@@H](Cc1ccc(O)cc1)C(N)=O)[C@@H](C)O)C(C)C)[C@@H](C)O [Example 44] (H-K([γGlu-C20 diacid])RCNTATCATQRLANFLRHSSPNFGAIPSSTNVGSHTY-NH2; disulfide 3-8),4.87 nM,0.369 nM,53.3,53.3,53.3,45 h,19.7 nM
CC[C@H](C)[C@H](NC(=O)[C@H](C)NC(=O)CNC(=O)[C@H](Cc1ccccc1)NC(=O)[C@H](CC(N)=O)NC(=O)[C@@H]1CCCN1C(=O)[C@H](CO)NC(=O)[C@H](CO)NC(=O)[C@H](Cc1c[nH]cn1)NC(=O)[C@H](CCCNC(=N)N)NC(=O)[C@H](CC(C)C)NC(=O)[C@H](Cc1ccccc1)NC(=O)[C@H](CC(N)=O)NC(=O)[C@H](C)NC(=O)[C@H](CC(C)C)NC(=O)[C@H](CCCNC(=N)N)NC(=O)[C@H](CCC(N)=O)NC(=O)[C@@H](NC(=O)[C@H](C)NC(=O)[C@@H]1CSSC[C@H](NC(=O)[C@@H](N)CCCCNC(=O)COCCOCCNC(=O)CC[C@H](NC(=O)CCCCCCCCCCCCCCCCCCC(=O)O)C(=O)O)C(=O)N[C@@H](CC(N)=O)C(=O)N[C@@H]([C@@H](C)O)C(=O)N[C@@H](C)C(=O)N[C@@H]([C@@H](C)O)C(=O)N1)[C@@H](C)O)C(=O)N1CCC[C@H]1C(=O)N[C@@H](CO)C(=O)N1CCC[C@H]1C(=O)N[C@H](C(=O)N1CCC[C@H]1C(=O)N[C@H](C(=O)NCC(=O)N[C@@H](CO)C(=O)N[C@@H](CC(N)=O)C(=O)N[C@H](C(=O)N[C@@H](Cc1ccc(O)cc1)C(N)=O)[C@@H](C)O)C(C)C)[C@@H](C)O [Example 54] (H-K([AEEA-γGlu-C20 diacid])CNTATCATQRLANFLRHSSPNFGAIPSPTPVGSNTY-NH2; disulfide 2-7; N-terminus assumed),4.38 nM,0.049 nM,179.4,179.4,179.4,15 h,8.79 nM

# — US9023789B2, “Amylin analogs and pharmaceutical compositions thereof” (Novo Nordisk A/S, priority 2012, dated 2015)
